Experimental data: BindingDB's records for patent US20240343694 (Korea Reserarch Institute of Chemical Technology, 2024)

Experiments:
[1] = target: T1, Receptor tyrosine-protein kinase erbB-2 [1-775,'YVMA',776-1255] (Homo sapiens, UniProt P04626); assay: Inhibitory Activity of Compounds Against HER2 A775_G776insYVMA mutant enzyme
T1 construct: 1-775,'YVMA',776-1255
Protocol: The activity of the compounds of the present invention against HER mutant enzymes was measured using the HTRF system purchased by Cisbio as follows. As a HER2 mutant enzyme, the HER2 A775_G776insYVMA mutant enzyme was used by purchasing a recombinant protein provided by Carna Biosciences.The composition of the assay buffer used for activity measurement was 50 mM tris-HCl pH 7.5, 100 mM NaCl, 7.5 mM MgCl2, 3 mM KCl, 0.01% tween 20, 0.1% BSA, and 1 mM DTT. In addition thereto, the enzymatic reaction was performed using a peptide substrate labeled with ATP at a concentration of […] and biotin at a concentration of […]. The analysis of the activity inhibitory effect of the compounds on HER2 A775_G776insYVMA mutation was performed according to the following method.Component 1:4 μL of HER2 A775_G776insYVMA mutant enzymeComponent 2:2 μL of compound solutionComponent 3:4 μL of ATP and a biotin labeled peptideThe enzyme reaction begins by first mixing component 1 and component 2 and then adding component 3 thereto. After the reaction at 37° C. for 2 hours, […] of a measurement solution consisting of streptavidin-XL665 and a europium-labeled anti-phosphotyrosine antibody purchased from Cisbio was added to the enzyme reaction solution and reacted at room temperature for 1 hour. Finally, the ratio of fluorescence values at 615 nm and 665 nm was measured using Perkin-Elmer's Envision equipment to calculate enzyme activity and confirm the inhibitory ability of the compounds.

[2] = target: T2, Epidermal growth factor receptor [DEL746-750] (Homo sapiens, UniProt P00533, DEL746-750); assay: Inhibitory Activity of Compounds Against EGFR Mutant Enzyme
T2 construct: gene EGFR
Protocol: (§1) The activity of the compounds of the present invention against EGFR mutant enzymes was measured using the HTRF system purchased from Cisbio as follows. For an EGFR mutant enzyme, the EGFR del19 enzyme was a recombinant protein purchased from Carna Biosciences, and the EGFR A763_Y764insFHEA enzyme was a recombinant protein purchased from SignalChem, respectively.The composition of the assay buffer used for activity measurement was 50 mM tris-HCl pH 7.5, 100 mM NaCl, 7.5 mM MgCl2, 3 mM KCl, 0.01% tween 20, 0.1% BSA, and 1 mM DTT. An enzymatic reaction was performed using a peptide substrate labeled with ATP at a concentration of […] and biotin at a concentration of […]. The analysis of the inhibitory effect of the compounds on EGFR activity was performed according to the following method.Component 1:4 μL of EGFR mutant enzymeComponent 2:2 μL of compound solutionComponent 3:4 μL of ATP and a biotin labeled peptideThe enzyme reaction begins by first mixing component 1 and component 2 and then adding component 3 thereto. After the reaction at 37° C. for 2 hours, […] of a measurement solution consisting of streptavidin-XL665 and a europium-labeled anti-phosphotyrosine antibody purchased from Cisbio was added to the enzyme reaction solution and reacted at room temperature for 1 hour. Finally, the ratio of fluorescence values at 615 nm and 665 nm was measured using Perkin-Elmer's Envision instrument to calculate enzyme activity and confirm the inhibitory ability of the compounds.

[3] = target: T3, Epidermal growth factor receptor [1-763,'FHEA',764-1210] (UniProt P00533); assay: as above
T3 construct: 1-763,'FHEA',764-1210
Protocol: as §1

[4] = target: T4, Epidermal growth factor receptor [DEL746-750] (Homo sapiens, UniProt P00533); assay: as above
T4 construct: gene EGFR
Protocol: as §1

T4 sequence (P00533 with tags, fused parts or gaps DEL746-750 limits assumed, stated change not applied): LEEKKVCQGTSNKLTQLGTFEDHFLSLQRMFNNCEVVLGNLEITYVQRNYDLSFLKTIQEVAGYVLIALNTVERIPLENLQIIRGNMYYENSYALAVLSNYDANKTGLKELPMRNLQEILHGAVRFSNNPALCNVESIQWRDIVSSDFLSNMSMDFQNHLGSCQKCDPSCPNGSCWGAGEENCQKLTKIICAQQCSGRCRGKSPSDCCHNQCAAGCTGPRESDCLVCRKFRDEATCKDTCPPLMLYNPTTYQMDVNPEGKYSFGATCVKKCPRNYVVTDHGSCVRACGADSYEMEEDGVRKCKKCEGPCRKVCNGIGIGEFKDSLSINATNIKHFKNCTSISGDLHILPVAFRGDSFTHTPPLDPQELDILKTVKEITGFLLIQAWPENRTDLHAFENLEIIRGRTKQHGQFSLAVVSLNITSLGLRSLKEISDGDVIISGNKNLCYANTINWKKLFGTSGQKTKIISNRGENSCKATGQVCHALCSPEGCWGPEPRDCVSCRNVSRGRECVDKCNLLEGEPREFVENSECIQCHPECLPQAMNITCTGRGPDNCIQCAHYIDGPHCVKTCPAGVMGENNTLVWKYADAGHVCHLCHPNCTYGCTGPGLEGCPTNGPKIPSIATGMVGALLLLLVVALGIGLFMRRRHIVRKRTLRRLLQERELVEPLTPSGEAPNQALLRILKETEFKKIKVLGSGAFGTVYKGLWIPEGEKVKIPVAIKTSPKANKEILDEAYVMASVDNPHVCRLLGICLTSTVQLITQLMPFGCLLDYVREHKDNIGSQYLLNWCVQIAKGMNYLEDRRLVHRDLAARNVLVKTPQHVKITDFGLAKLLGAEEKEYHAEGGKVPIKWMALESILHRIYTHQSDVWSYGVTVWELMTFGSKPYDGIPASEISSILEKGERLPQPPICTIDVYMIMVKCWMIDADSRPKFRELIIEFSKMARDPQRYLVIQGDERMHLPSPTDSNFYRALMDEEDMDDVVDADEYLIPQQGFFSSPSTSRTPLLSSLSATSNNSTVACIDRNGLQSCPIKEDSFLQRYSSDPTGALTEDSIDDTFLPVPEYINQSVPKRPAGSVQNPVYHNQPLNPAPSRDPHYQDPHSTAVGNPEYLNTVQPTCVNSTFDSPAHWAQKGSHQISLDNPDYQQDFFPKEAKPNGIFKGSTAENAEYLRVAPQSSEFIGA
T3 sequence (P00533 with tags, fused parts or gaps INS763FHEA limits assumed): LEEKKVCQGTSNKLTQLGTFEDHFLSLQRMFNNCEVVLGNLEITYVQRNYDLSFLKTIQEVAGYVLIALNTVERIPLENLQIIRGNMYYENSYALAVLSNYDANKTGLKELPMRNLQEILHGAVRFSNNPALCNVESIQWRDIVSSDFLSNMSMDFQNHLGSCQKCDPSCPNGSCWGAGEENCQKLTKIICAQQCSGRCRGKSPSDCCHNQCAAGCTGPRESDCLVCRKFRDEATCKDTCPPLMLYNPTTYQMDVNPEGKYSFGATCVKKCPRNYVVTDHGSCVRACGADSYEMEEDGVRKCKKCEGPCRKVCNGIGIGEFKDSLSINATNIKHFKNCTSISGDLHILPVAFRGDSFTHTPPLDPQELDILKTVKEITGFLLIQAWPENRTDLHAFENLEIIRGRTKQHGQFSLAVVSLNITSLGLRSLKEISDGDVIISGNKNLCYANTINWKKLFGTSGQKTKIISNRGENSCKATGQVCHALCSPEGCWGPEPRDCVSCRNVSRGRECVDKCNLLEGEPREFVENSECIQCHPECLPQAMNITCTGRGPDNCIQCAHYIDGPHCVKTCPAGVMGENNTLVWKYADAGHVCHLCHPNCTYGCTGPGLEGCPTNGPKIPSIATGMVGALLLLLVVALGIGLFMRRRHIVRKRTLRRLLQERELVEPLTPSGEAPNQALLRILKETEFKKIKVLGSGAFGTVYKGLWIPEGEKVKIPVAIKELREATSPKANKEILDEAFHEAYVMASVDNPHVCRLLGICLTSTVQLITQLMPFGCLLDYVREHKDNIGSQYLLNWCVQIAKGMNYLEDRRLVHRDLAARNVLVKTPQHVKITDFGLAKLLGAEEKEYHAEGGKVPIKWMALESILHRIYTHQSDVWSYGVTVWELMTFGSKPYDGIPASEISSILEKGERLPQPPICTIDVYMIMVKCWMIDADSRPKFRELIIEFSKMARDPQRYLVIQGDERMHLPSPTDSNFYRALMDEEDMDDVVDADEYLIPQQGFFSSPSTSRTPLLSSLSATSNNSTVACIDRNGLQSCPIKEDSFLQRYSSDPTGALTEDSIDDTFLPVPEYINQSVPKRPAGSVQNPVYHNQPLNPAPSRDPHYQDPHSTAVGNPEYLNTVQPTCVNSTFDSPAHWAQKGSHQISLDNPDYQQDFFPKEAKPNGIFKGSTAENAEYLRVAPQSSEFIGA
T1 sequence (P04626 with tags, fused parts or gaps INS775YVMA limits assumed): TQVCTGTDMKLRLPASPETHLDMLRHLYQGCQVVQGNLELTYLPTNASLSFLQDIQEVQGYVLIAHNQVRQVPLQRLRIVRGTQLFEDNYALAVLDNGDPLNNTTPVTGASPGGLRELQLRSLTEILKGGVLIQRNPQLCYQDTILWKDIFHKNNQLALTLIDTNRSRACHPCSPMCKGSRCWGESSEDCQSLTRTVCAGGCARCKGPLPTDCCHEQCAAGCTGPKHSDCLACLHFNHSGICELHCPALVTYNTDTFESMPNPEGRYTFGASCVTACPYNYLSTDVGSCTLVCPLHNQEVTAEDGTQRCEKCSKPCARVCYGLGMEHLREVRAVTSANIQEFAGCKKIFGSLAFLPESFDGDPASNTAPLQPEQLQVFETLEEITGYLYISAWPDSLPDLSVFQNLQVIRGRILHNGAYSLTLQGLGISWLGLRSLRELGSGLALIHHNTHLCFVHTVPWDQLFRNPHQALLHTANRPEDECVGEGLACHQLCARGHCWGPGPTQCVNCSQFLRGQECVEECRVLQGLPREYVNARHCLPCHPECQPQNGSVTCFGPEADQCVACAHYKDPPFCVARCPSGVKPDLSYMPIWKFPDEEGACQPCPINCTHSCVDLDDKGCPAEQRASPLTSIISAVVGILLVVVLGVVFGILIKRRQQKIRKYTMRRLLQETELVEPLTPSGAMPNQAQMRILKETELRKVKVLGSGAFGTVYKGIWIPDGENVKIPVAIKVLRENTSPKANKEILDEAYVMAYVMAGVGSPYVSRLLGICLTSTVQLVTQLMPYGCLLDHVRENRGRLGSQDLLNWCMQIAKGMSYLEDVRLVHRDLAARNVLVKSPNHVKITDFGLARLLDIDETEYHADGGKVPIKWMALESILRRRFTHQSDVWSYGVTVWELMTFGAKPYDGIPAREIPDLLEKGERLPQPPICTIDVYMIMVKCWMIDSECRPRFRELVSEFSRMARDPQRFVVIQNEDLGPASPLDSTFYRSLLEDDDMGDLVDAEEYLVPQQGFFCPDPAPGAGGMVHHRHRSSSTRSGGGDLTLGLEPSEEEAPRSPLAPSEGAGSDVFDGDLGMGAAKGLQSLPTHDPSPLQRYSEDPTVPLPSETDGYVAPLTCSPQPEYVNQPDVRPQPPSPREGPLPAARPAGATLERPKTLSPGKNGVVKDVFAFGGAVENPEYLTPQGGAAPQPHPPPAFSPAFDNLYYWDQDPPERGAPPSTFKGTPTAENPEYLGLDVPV
T2 sequence (P00533 with tags, fused parts or gaps DEL746-750 limits assumed): as the sequence (P00533 with tags, fused parts or gaps DEL746-750 limits assumed, stated change not applied) above

Structure (SMILES) | IC50 [1] [nM] | IC50 [2] [nM] | IC50 [3] [nM] | IC50 [4] [nM]
CC(C)OC(=O)c1cnc(Cl)nc1Nc1cccc2c1N(S(C)(=O)=O)CC2 [US20240343694, Example 69] | 6 | < 1 | < 1 | 
C=CC(=O)Nc1cc(N)c(OC)cc1OCCN1CCCC1 [US20240343694, Example 30] | 4 |  | < 1 | < 1
COc1cc(N(C)CCN(C)C)c(N)cc1Nc1ncc(Cl)c(Nc2ccccc2NS(C)(=O)=O)n1 [US20240343694, Example 38] | 14 |  | 2 | < 1
CC(=O)N(C)c1c(Nc2nc(Cl)ncc2Cl)ccc(C)c1C [US20240343694, Example 86] | 157 |  | 20 | 2
C=CC(=O)Nc1cc(N)c(OC)cc1N(C)CCN1CCC1 [US20240343694, Example 82] | 2 |  | < 1 | < 1
C=CC(=O)Nc1cc(N)c(OC)cc1N(C)CCN1CCCCC1 [US20240343694, Example 31] | 0.3 |  | < 1 | < 1
CCN(c1ccccc1Nc1nc(Cl)ncc1Cl)S(C)(=O)=O [US20240343694, Example 41] | 9 |  | 1 | < 1
C=C(F)C(=O)Nc1cc(N)c(OC)cc1N(C)CCN(C)C [US20240343694, Example 64] | 3 |  | < 1 | < 1
C=CC(=O)Nc1cc(N)c(OC)cc1OCCN(C)C [US20240343694, Example 71] | 61 |  | 5 | < 1
CC(=O)N(C)c1c(N)ccc(C)c1C [US20240343694, Example 85] | 871 |  | 43 | 18
C=CC(=O)Nc1cc(N)c(OC)cc1N1CCC(N(C)C)CC1 [US20240343694, Example 59] | 20 |  | < 1 | < 1
C=CC(=O)Nc1cc(N)c(OC)cc1N(C)CCN1CCN(C)CC1 [US20240343694, Example 79] | 1 |  | < 1 | < 1
C=CC(=O)Nc1cc(Nc2ncc(Cl)c(Nc3cccc4c3N(S(C)(=O)=O)CCC4)n2)c(OC)cc1N(C)CCN(C)C(=O)OC(C)(C)C [US20240343694, Example 58] | 90 |  | 10 | < 1
C=CC(=O)Nc1cc(N)c(OC)cc1N(C)CCN(C(=O)OCc1ccccc1)C(C)C [US20240343694, Example 32] | 8 |  | 1 | < 1
CCc1cccc(Nc2nc(Cl)ncc2Cl)c1NS(=O)(=O)CC [US20240343694, Example 52] | 4 |  | < 1 | < 1
CC(C)N(c1ccccc1Nc1nc(Cl)ncc1Cl)S(C)(=O)=O [US20240343694, Example 42] | 6 |  | < 1 | < 1
CN(c1c(Nc2nc(Cl)ncc2Cl)ccc2nccnc12)S(C)(=O)=O [US20240343694, Example 75] | 3 |  | < 1 | < 1
C=CC(=O)Nc1cc(N)c(OC)cc1N1CCC(N2CCN(C)CC2)CC1 [US20240343694, Example 60] | 10 |  | < 1 | < 1
O=S1(=O)CCCCN1c1ccccc1Nc1nc(Cl)ncc1Cl [US20240343694, Example 78] | 3 |  | < 1 | < 1
Cc1ccc(Nc2nc(Cl)ncc2Cl)c(NS(C)(=O)=O)c1C [US20240343694, Example 54] | 10 |  | < 1 | < 1
C=CC(=O)Nc1cc(N)c(OC)cc1N(C)CCN(C)C(=O)OCc1ccccc1 [US20240343694, Example 34] | 20 |  | 1 | < 1
C=CC(=O)Nc1cc(N)c(OC)cc1N(C)CCN1CCCC1 [US20240343694, Example 29] | 5 |  | < 1 | < 1
COC(=O)c1cnc(Cl)nc1Nc1cccc2c1N(S(C)(=O)=O)CCC2 [US20240343694, Example 61] | 1 |  | < 1 | < 1
Cc1ccc(Nc2nc(Cl)ncc2Cl)c(N(C)S(C)(=O)=O)c1 [US20240343694, Example 55] | < 1 |  | < 1 | < 1
CCCS(=O)(=O)Nc1ccccc1Nc1nc(Cl)ncc1C [US20240343694, Example 26] | 80 |  | 200 | 4
